Results reported in patent publication US6497862B2, “Composition for inhibiting body odor and uses thereof” (Kabushiki Kaisha Hayashibara, priority 2000, dated 2002).

How the values were obtained:
[1] = Panel test of body-odor-like smell (KAREI-SHU), linoleic acid heated (Experiment 2); set-up: key: +++: the same or higher level of odor; ++: slightly lower level of odor; +: clearly lower level of odor than that of the control system; details: compared with control system
Text: (§1) Upon the HSG samples, the level of a body-odor-like smell was examined on a panel test consisting of six professional panels; the panels directly smelled the samples from each glass vial and judged the level of the smells for each samples with test saccharides based on the following four ranks, i.e., the same or higher level of odor (+++), slightly lower level of odor (++), clearly lower level of odor (+), and odorless (−) as compared with the control system. Summing up the data from the panels, the samples tested were totally evaluated.
(§2) The content of 2-nonenal in HSG was measured by GC similarly as in Experiment 1 except that linoleic acid was used as a fatty acid and 2-nonenal, a volatile aldehyde, was used as a standard substance. The level of a body-odor-like smell, particularly with respect to KAREI-SHU, in each sample was evaluated by panel test in accordance with the method in Experiment 1.

[2] = Formation of volatile aldehydes from oleic acid by heating, GC analysis of head space gas (Experiment 1); details: oleic acid 100 mg + 100 mg test saccharide, heated at 105° C. for one hour; for Content in HSG, Hexanal: control 0.08; for Content in HSG, Butanal: control 1.04; for Content in HSG, Propanal: control 9.41
Description: (§3) One hundred milligrams of oleic acid as a fatty acid, 500 mg of cellulose powder, and 1.25 ml of 0.12 M phosphate buffer (pH 6.0) were placed in a 20-ml glass vial. To the glass vial were added 100 mg of either of crystalline trehalose hydrate, crystalline maltitol anhydride, crystalline sorbitol anhydride, crystalline sucrose anhydride, crystalline maltose anhydride, and crystalline neotrehalose hydride as test saccharides (throughout Experiments 1 to 6, these saccharides are designated as “trehalose”, “maltitol”, sorbitol”, “sucrose”, “maltose”, and “neotrehalose”, respectively), followed by sealing the glass vial with a butyl rubber. As a control system, there provided a glass vial, with no a test saccharide, which differed from the test glass vial on this point. These glass vials were heated at 105° C. for one hour, cooled to ambient temperature, and kept in an aluminum heat-block (abbreviated as “heat block, hereinafter”), which had been preheated to 80° C. After 5-minutes standing, two milliliters of a head space gas (abbreviated as “HSG”, hereinafter) were collected from each glass vial with a syringe.
(§4) The collected HSG was analyzed for content of volatile aldehydes on gas chromatography (abbreviated as “GC” hereinafter) using “GAS CHROMATOGRAPH GC-14A”, as a GC apparatus; “CAPILLARY COLUMN SUPELCO-WAX”, having 0.25 mm in inner diameter, 60 m in length, and 0.25 μm in thickness, commercialized by Supelco Inc., Tokyo, Japan, as a column for analysis; helium gas at a flow rate of one ml/min as a carrier gas, under temperature conditions of 250° C. for injecting a sample and of a column thermostatic bath temperature being kept at 80° C. for five minutes and then increased up to 240° C. at a rate of 5° C./min. As standard specimens, propanal, butanal, and hexanal as volatile aldehydes were used. Based on the peak area obtained from gas chromatography for the standard specimens and HSG samples, the content of respective volatile aldehydes in HSG was calculated.

[3] = Panel test of body-odor-like smell, oleic acid heated (Experiment 1); set-up: key: +++: the same or higher level of odor; ++: slightly lower level of odor; +: clearly lower level of odor than that of the control system; details: oleic acid heated at 105° C. for one hour; six panels, compared with control system
Description: as §3, §1

[4] = Formation of 2-nonenal from linoleic acid by heating, GC of HSG (Experiment 2); details: linoleic acid + 100 mg test saccharide, heated at 105° C. for one hour; control 5.75
Description: as §3, §4, §2

[5] = Panel test of body-odor-like smell (KAREI-SHU), 9-hexadecanoic acid heated (Experiment 3); set-up: key: +++: the same or higher level of odor; ++: slightly lower level of odor; +: clearly lower level of odor than that of the control system; details: compared with control system
Text: as §1
(§5) The content of 2-nonenal in HSG was measured by GC similarly as in Experiment 1 except that 9-hexadecanoic acid or palmitoleic acid was used as a fatty acid and 2-nonenal, a volatile aldehyde, was used as a standard substance. The level of body-odor-like smell, particularly with respect to KAREI-SHU, in each sample was evaluated by panel test in accordance with the method in Experiment 1.

[6] = Formation of 2-nonenal from 9-hexadecanoic acid by heating, GC of HSG (Experiment 3); details: 9-hexadecanoic acid + 100 mg test saccharide, heated at 105° C. for one hour; control 25.7
Description: as §3, §4, §5

Structure (SMILES)	Evaluation of panel test [1]	Content in HSG, Hexanal [2]	Content in HSG, Butanal [2]	Content in HSG, Propanal [2]	Evaluation of panel test [3]	Content of 2-nonenal in HSG [4]	Evaluation of panel test [5]	Content of 2-nonenal in HSG [6]
OC[C@@H](O)[C@@H](O)[C@H](O)[C@@H](O)CO [Sorbitol, sorbitol]	+++	0.06 µg/mL	1.06 µg/mL	8.31 µg/mL	+++	5.12 µg/mL	+++	23.6 µg/mL
OC[C@H]1O[C@@H](O[C@H]2O[C@H](CO)[C@@H](O)[C@H](O)[C@H]2O)[C@H](O)[C@@H](O)[C@@H]1O [Neotrehalose, neotrehalose]	+++	0.08 µg/mL	1.25 µg/mL	8.89 µg/mL	+++	5.64 µg/mL	+++	25.7 µg/mL
OC[C@H]1O[C@H](O[C@H]2[C@H](O)[C@@H](O)C(O)O[C@@H]2CO)[C@H](O)[C@@H](O)[C@@H]1O (mixture of isomers) [Maltose, maltose]	+++	0.07 µg/mL	1.38 µg/mL	9.09 µg/mL	+++	4.60 µg/mL	+++	24.2 µg/mL
